Data reported in ChEMBL document CHEMBL1135212, “Evolution, synthesis and SAR of tripeptide alpha-ketoacid inhibitors of the hepatitis C virus NS3/NS4A serine protease” (Bioorg Med Chem Lett, 2002).
Square brackets hold non-standard residues; d marks the D form. Peptide text beside a SMILES is read from it. Dip = N[C@H](C(=O)O)C(c1ccccc1)c1ccccc1; Abu(4,4-F2) = N[C@@H](CC(F)F)C(=O)O; Cha = N[C@@H](CC1CCCCC1)C(=O)O

biological target: Genome polyprotein (Hepatitis C virus genotype 1a (isolate 1) (HCV), UniProt P26664); experiment: Inhibition to hepatitis C virus (HCV) NS3/NS4A serine protease
Sequence (P26664 1027-1657 limits assumed): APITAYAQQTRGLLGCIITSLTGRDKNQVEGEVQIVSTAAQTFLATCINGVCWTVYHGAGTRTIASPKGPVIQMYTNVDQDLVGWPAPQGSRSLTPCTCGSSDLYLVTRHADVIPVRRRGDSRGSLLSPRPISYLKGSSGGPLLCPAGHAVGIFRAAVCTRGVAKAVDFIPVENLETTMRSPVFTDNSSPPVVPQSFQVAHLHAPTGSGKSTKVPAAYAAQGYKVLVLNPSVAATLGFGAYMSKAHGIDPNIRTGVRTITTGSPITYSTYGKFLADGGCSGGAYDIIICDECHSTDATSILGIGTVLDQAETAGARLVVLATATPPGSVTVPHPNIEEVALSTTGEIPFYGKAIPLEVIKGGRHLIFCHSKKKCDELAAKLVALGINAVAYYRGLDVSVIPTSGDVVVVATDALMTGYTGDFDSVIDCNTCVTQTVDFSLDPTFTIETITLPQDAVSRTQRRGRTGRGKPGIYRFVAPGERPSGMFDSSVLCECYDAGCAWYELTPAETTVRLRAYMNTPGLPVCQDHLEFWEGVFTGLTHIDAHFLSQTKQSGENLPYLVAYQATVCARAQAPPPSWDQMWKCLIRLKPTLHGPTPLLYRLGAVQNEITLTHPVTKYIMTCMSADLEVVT
Sequence (P26664 1658-1711 limits assumed): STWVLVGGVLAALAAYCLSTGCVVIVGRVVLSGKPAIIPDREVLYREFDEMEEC

First: CC[C@H](C)[C@H](NC(=O)OC(C)(C)C)C(=O)N[C@@H](CC(C)C)C(=O)N[C@@H](CC(F)F)C(=O)C(=O)O
Second: CC(C)C[C@H](NC(=O)[C@@H](NC(=O)OC(C)(C)C)C(C)C)C(=O)N[C@@H](CC(F)F)C(=O)C(=O)O
The IC50 of the first is 2.2-fold higher: 1000 nM for the first, 460 nM for the second. The second is the more potent here.

First: CCC(C)[C@H](NC(=O)NCc1ccccc1)C(=O)N[C@@H](CC(C)C)C(=O)N[C@@H](CC(F)F)C(=O)C(=O)O (stereo partly drawn)
Second: CC[C@H](C)[C@H](NC(=O)OCc1ccccc1)C(=O)N[C@@H](CC(C)C)C(=O)N[C@@H](CC(F)F)C(=O)C(=O)O
The IC50 of the first is 1.9-fold higher: 3300 nM for the first, 1700 nM for the second.

Compared with `CC(=O)N[C@H](C(=O)[C@H](CCC(=O)O)N[C@@H](CC1CCCCC1)C(=O)N[C@@H](CC(F)F)C(=O)O)C(c1ccccc1)c1ccccc1`, `CC(=O)N[C@H](C(=O)[C@H](CCC(=O)O)N[C@@H](CC1CCCCC1)C(=O)N[C@@H](CC(F)F)C(=O)C(=O)O)C(c1ccccc1)c1ccccc1` is lower in IC50: over 50000 nM for the first, 5300 nM for the second. The second is the more potent here.

`CC[C@H](C)[C@H](NC(=O)OCc1ccccc1)C(=O)N[C@@H](CC(C)C)C(=O)N[C@@H](CC(F)F)C(=O)c1nnn[nH]1` and `CCC(C)[C@H](NC(=O)OCc1ccccc1)C(=O)N[C@@H](CC(C)C)C(=O)N[C@@H](CC(F)F)C(=O)C(=O)OC` (stereo partly drawn) cannot be ordered by IC50: over 50000 nM for the first, over 50000 nM for the second.

First: CC(=O)N[C@H](C(=O)[C@H](CCC(=O)O)N[C@@H](CC1CCCCC1)C(=O)N[C@H](C=O)CC(F)F)C(c1ccccc1)c1ccccc1
Second: CC[C@H](C)[C@H](NC(=O)OCc1ccccc1)C(=O)N[C@@H](CC1CCCCC1)C(=O)N[C@@H](CC(F)F)C(=O)C(=O)O
The IC50 of the first is higher: over 50000 nM for the first, 1400 nM for the second. The second is the more potent here.

`CCC(C)[C@H](NC(=O)OCc1ccccc1)C(=O)N[C@@H](CC(C)C)C(=O)N[C@@H](CC(F)F)C(O)C(=O)O` (stereo partly drawn) and `CCC(C)[C@H](NC(=O)OCc1ccccc1)C(=O)N[C@@H](CC(C)C)C(=O)N[C@H](CC(=O)O)CC(F)F` (stereo partly drawn) cannot be ordered by IC50: over 50000 nM for the first, over 50000 nM for the second.

`CCC(C)[C@H](NC(=O)OCc1ccccc1)C(=O)N[C@H](C(=O)N[C@@H](CC(F)F)C(=O)C(=O)O)C(C)C` (stereo partly drawn) and `CC[C@H](C)[C@H](NC(=O)OCc1ccccc1)C(=O)N[C@@H](C)C(=O)N[C@@H](CC(F)F)C(=O)C(=O)O` are within 1.5-fold of each other in IC50: 16000 nM for the first, 15600 nM for the second.

First: CC(C)C[C@H](NC(=O)[C@H](CCC(N)=O)NC(=O)OC(C)(C)C)C(=O)N[C@@H](CC(F)F)C(=O)C(=O)O
Second: CC(C)C[C@H](NC(=O)[C@H](CCC(=O)O)NC(=O)OC(C)(C)C)C(=O)N[C@@H](CC(F)F)C(=O)C(=O)O
The IC50 of the first is 6.4-fold higher: 2100 nM for the first, 330 nM for the second.

Compared with `CC(C)(C)OC(=O)N[C@@H](CCC(=O)O)C(=O)N[C@@H](CC(F)F)C(=O)N[C@@H](CC(F)F)C(=O)C(=O)O`, `CC(C)C[C@H](NC(=O)[C@H](CC(=O)O)NC(=O)OC(C)(C)C)C(=O)N[C@@H](CC(F)F)C(=O)C(=O)O` is 5.4-fold higher in IC50: 300 nM for the first, 1630 nM for the second. The first is the more potent here.

Compared with `CC[C@H](NC(=O)[C@@H](NC(=O)OCc1ccccc1)[C@@H](C)CC)C(=O)N[C@@H](CC(F)F)C(=O)C(=O)O`, `CC[C@H](C)[C@H](NC(=O)OCc1ccccc1)C(=O)NCC(=O)N[C@@H](CC(F)F)C(=O)C(=O)O` is higher in IC50: 3280 nM for the first, over 100000 nM for the second.

First: CC(C)C[C@H](NC(=O)[C@H](C)NC(=O)OC(C)(C)C)C(=O)N[C@@H](CC(F)F)C(=O)C(=O)O
Second: CC(C)C[C@H](NC(=O)[C@@H](NC(=O)OC(C)(C)C)C1CCCC1)C(=O)N[C@@H](CC(F)F)C(=O)C(=O)O
The IC50 of the first is 23-fold higher: 8900 nM for the first, 380 nM for the second.

Going from `CCC(C)[C@H](NC(=O)OCc1ccc(C(=O)OC)cc1)C(=O)N[C@@H](CC(C)C)C(=O)N[C@@H](CC(F)F)C(=O)C(=O)O` (stereo partly drawn) to `CCC(C)[C@H](NC(=O)OCc1ccc(C(=O)O)cc1)C(=O)N[C@@H](CC(C)C)C(=O)N[C@@H](CC(F)F)C(=O)C(=O)O` (stereo partly drawn), the IC50 falls from 1700 nM to 440 nM (3.9-fold). The second is the more potent here.

First: CCC(C)[C@H](NC(=O)OCc1ccccc1)C(=O)N[C@@H](Cc1ccccc1)C(=O)N[C@@H](CC(F)F)C(=O)C(=O)O (stereo partly drawn)
Second: CC[C@H](C)[C@H](NC(=O)OCc1ccccc1)C(=O)N[C@@H](CC(C)C)C(=O)N[C@H](C=O)CC(F)F
The IC50 of the first is lower: 9400 nM for the first, over 50000 nM for the second.

`CC[C@H](C)[C@H](NC(C)=O)C(=O)N[C@@H](CC(C)C)C(=O)N[C@@H](CC(F)F)C(=O)C(=O)O` showed an IC50 of 16000 nM.

biological target: Hepatitis C virus serine protease, NS3/NS4A (Hepatitis C virus, UniProt A3EZI9+D2K2A8); experiment: Inhibitory activity against hepatitis C virus (HCV) NS3/NS4A serine protease; format: protein-complex assay, Hepacivirus hominis
Sequence (D2K2A8 whole entry): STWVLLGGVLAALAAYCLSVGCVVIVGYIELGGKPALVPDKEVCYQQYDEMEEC
Sequence (A3EZI9 whole entry): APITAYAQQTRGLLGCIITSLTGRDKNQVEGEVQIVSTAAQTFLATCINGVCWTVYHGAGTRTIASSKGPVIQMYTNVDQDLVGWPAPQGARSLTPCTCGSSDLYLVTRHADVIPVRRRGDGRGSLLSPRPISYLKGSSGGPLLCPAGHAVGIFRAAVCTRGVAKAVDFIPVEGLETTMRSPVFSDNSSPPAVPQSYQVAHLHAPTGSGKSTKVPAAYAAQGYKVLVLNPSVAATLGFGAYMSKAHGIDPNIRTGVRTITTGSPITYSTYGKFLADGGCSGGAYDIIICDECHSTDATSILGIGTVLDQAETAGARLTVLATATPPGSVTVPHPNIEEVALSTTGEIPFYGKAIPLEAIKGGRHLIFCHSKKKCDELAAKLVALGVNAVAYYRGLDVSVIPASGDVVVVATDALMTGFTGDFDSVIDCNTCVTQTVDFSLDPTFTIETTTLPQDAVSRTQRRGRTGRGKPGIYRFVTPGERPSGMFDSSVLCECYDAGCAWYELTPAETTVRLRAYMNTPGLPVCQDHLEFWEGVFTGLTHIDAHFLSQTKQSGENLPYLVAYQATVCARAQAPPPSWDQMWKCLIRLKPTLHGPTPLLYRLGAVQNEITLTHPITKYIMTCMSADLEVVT

For `CC(=O)N[C@@H](CC(=O)O)C(=O)N[C@@H](CCC(=O)O)C(=O)N[C@H](C(=O)N[C@@H](CCC(=O)O)C(=O)N[C@@H](CC1CCCCC1)C(=O)N[C@@H](CC(F)F)C(=O)O)C(c1ccccc1)c1ccccc1` (Ac-DE[Dip]E[Cha][Abu(4,4-F2)]-OH), the Ki was 40 nM.
